Measurements published in patent US20230146455A1, “TREATMENT OF INFLAMMATORY DISEASES WITH PEPTIDES AND PHARMACEUTICAL COMPOSITIONS” (Yuyu Pharma, Inc., priority 2020, published 2023).
“And” between values parts separate entries of the source, which are not always exact repeats. Identical values can stand only once. Where a SMILES comes first, the peptide text is derived from it. [ ]: non-standard residue; d: D form. Hyp = O=C(O)[C@@H]1C[C@@H](O)CN1

Test system: TNF-alpha
Experiment: Example 8 main study Luminex, LPS hPBMCs: TNF-alpha
Assay type: cell-based, human
Settings: for TNF-alpha Concentration: individual replicates; for TNF-alpha Concentration (pg/ml), Mean: mean of replicates; for LPS-induced TNF-α (in words): at as low as 5 μM, LPS 5 ug/mL 24 hrs
Protocol: Human PBMCs were pretreated with YY-101, YDE-011, YDE-043 or reference compound; Xiidra® at various concentration (ranging from […] to 500 nM) for 2 h before stimulation. An equal volume of 0.5% DMSO was used as a vehicle control. Then, the cells were treated with LPS at 5 ug/ml, which was selected based on the pilot study. The supernatants from treated cells were harvested at 24 h and placed in a 96 well for Luminex cytokine & chemokine profiling using a Luminex 200 multiplex assay (Luminex; R&D system, USA).
The main study arm with triplicate wells per group in a 24-well plate: • 1. Blank • 2. PBMC: 0.5% DMSO • 3. PBMC+LPS (5 ug/ml) • 4. PBMC+YY-101 500 nM • 5. PBMC+YY-101 50 nM • 6. PBMC+YY-101 5 nM • 7. PBMC+YY-101 0.5 nM • 8. PBMC+LPS (5 ug/ml)+Xiidra® 500 nM • 9. PBMC+LPS (5 ug/ml)+Xiidra® 50 nM • 10. PBMC+LPS (5 ug/ml)+Xiidra® 5 nM • 11. PBMC+LPS (5 ug/ml)+Xiidra® 0.5 nM • 12. PBMC+LPS (5 ug/ml)+Xiidra® 0.05 nM • 13. PBMC+LPS (5 ug/ml)+Xiidra® 0.005 nM • 14. PBMC+LPS (5 ug/ml)+YY-101 500 nM • 15. PBMC+LPS (5 ug/ml)+YY-101 50 nM • 16. PBMC+LPS (5 ug/ml)+YY-101 5 nM • 17. PBMC+LPS (5 ug/ml)+YY-101 0.5 nM • 18. PBMC+LPS (5 ug/ml)+YY-101 0.05 nM • 19. PBMC+LPS (5 ug/ml)+YY-101 0.005 nM • 20. PBMC+LPS (5 ug/ml)+YDE-011 500 nM • 21. PBMC+LPS (5 ug/ml)+YDE-011 50 nM • 22. PBMC+LPS (5 ug/ml)+YDE-011 5 nM • 23. PBMC+LPS (5 ug/ml)+YDE-011 0.5 nM • 24. PBMC+LPS (5 ug/ml)+YDE-011 0.05 nM • 25. PBMC+LPS (5 ug/ml)+YDE-011 0.005 nM • 26. PBMC+LPS (5 ug/ml)+YDE-043 500 nM • 27. PBMC+LPS (5 ug/ml)+YDE-043 50 nM • 28. PBMC+LPS (5 ug/ml)+YDE-043 5 nM • 29. PBMC+LPS (5 ug/ml)+YDE-043 0.5 nM • 30. PBMC+LPS (5 ug/ml)+YDE-043 0.05 nM • 31. PBMC+LPS (5 ug/ml)+YDE-043 0.005 nM
Multiplex assay was used to measure 30 cytokines and chemokines. The 1:200 diluted cell supernatant and serial dilution of the standard were dispensed into a 96 well plate at 50 ul/well. Then, the pre-mixed cocktail of antibody-coated magnetic beads was dispensed at 50 ul/well and incubated at room temperature for 2 h in a horizontal orbital microplate shaker at 800±500 rpm. The beads were washed using a magnetic device to prevent loss. The biotin-antibody was dispensed in 50 ul of each well and incubated at room temperature for 1 h in a shaker at 800±500 rpm. After washing, streptavidin-PE was added at 50 ul/well and incubated at room temperature for 30 min in a shaker under the same conditions. Finally, after washing, wash buffer (100 ul/well) was added to the plate and incubated in a shaker for 2 min. The Luminex™ 200 setting were set according to the manufacturer's protocol. The data was calculated with a standard five-parameter logistic nonlinear regression analysis of the data (xPonent software 4.2, USA). Results were presented as concentration (ng/ml or pg/ml).

[1] = PBMC + LPS(5 ug/ml) + test article 0.005 nM
[2] = PBMC + LPS(5 ug/ml) + test article 0.05 nM
[3] = PBMC + LPS(5 ug/ml) + test article 0.5 nM
[4] = PBMC + LPS(5 ug/ml) + test article 5 nM
[5] = PBMC + LPS(5 ug/ml) + test article 50 nM
[6] = PBMC + LPS(5 ug/ml) + test article 500 nM

Structure (SMILES)	TNF-alpha Concentration [1]	TNF-alpha Concentration (pg/ml), Mean [1] [pg/mL]	TNF-alpha Concentration [2]	TNF-alpha Concentration (pg/ml), Mean [2] [pg/mL]	TNF-alpha Concentration [3]	TNF-alpha Concentration (pg/ml), Mean [3] [pg/mL]	TNF-alpha Concentration [4]	TNF-alpha Concentration (pg/ml), Mean [4] [pg/mL]	TNF-alpha Concentration [5]	TNF-alpha Concentration (pg/ml), Mean [5] [pg/mL]	TNF-alpha Concentration [6]	TNF-alpha Concentration (pg/ml), Mean [6] [pg/mL]	TNF-alpha Concentration (PBMC + test article 0.5 nM, no LPS, dilution 200) [pg/mL]	TNF-alpha Concentration (PBMC + test article 5 nM, no LPS, dilution 200) [pg/mL]	TNF-alpha Concentration (PBMC + test article 0.05 uM, no LPS, dilution 200) [pg/mL]	TNF-alpha Concentration (PBMC + test article 50 nM, no LPS, dilution 200) [pg/mL]	TNF-alpha Concentration (PBMC + test article 500 nM, no LPS, dilution 200) [pg/mL]	LPS-induced TNF-α (in words)
CC(C)C[C@H](NC(=O)CNC(=O)[C@H](CC(=O)O)NC(=O)[C@H](CCC(N)=O)NC(=O)CNC(=O)[C@@H]1C[C@@H](O)CN1)C(=O)N[C@@H](C)C(=O)NCC(=O)N1CCC[C@H]1C(=O)N[C@@H](CCCCN)C(=O)O [YY-101] (H-[Hyp]GQDGLAGPK-OH; N-terminus and C-terminus assumed)	2871.6 pg/mL and 2369.4 pg/mL and 2179.5 pg/mL	2473.5	1797.0 pg/mL and 2621.2 pg/mL and 2242.9 pg/mL	2220.4	2432.5 pg/mL and 2242.9 pg/mL and 2116.1 pg/mL	2263.8	1988.8 pg/mL and 1925.0 pg/mL and 2242.9 pg/mL	2052.2	1732.8 pg/mL and 1668.5 pg/mL and 1988.8 pg/mL	1796.7	2179.5 pg/mL and 1988.8 pg/mL and 1797.0 pg/mL	1988.4	<7.70	<7.70	<7.70	<7.70	<7.70	significantly reduced
CC(C)C[C@H](NC(=O)[C@H](CCC(N)=O)NC(=O)CNC(=O)[C@@H]1C[C@@H](O)CN1)C(=O)NCC(=O)O [YDE-043] (H-[Hyp]GQLG-OH; N-terminus and C-terminus assumed)	2052.5 pg/mL and 1797.0 pg/mL and 2306.2 pg/mL	2051.9	1181.1 pg/mL and 1539.4 pg/mL and 1474.6 pg/mL	1398.4	1764.9 pg/ml and 1409.7 pg/ml (2×)	1528.1	1442.2 pg/mL and 2052.5 pg/mL and 1474.6 pg/mL	1656.4	2020.6 pg/mL and 1797.0 pg/mL and 1474.6 pg/mL	1764.1	1604.0 pg/mL and 1115.3 pg/mL and 1344.6 pg/mL	1354.6	–	–	–	–	–	significantly reduced
CC(C)C[C@H](NC(=O)CNC(=O)[C@H](CC(C)C)NC(=O)[C@H](CCC(N)=O)NC(=O)CNC(=O)[C@@H]1C[C@@H](O)CN1)C(=O)N[C@@H](C)C(=O)NCC(=O)N1CCC[C@H]1C(=O)N[C@@H](CCCCN)C(=O)O [YDE-011] (H-[Hyp]GQLGLAGPK-OH)	2116.1 pg/mL and 1988.8 pg/mL and 1861.0 pg/mL	1988.6	1861.0 pg/ml and 2052.5 pg/ml (2×)	1988.7	1344.6 pg/mL and 1988.8 pg/mL and 1797.0 pg/mL	1710.1	749.3 pg/mL and 1409.7 pg/mL and 1668.5 pg/mL	1275.8	1732.8 pg/mL and 2179.5 pg/mL and 442.1 pg/mL	1451.5	2116.1 pg/mL and 647.8 pg/mL and 1246.7 pg/mL	1336.9	–	–	–	–	–	significantly reduced
